Results reported in patent US9828299B2, “Methods for rendering micellar coordination complexes safe for the treatment of plants and formulations for same” (Innovation Hammer LLC, priority 2012, dated 2017).

Tests used:
[1] = Solubility of ketoester coordination complex
Method: One suitable coordination complex may be made, for example, by dissolving 10 mg ferric nitrate nonahydrate, in 1 ml water with stirring at room temperature until the solution is clear with all crystals dissolved; to the aqueous iron solution, 1 ml MAA is added with rapid stirring for 5-50 minutes or more to allow formation of the coordination complex. […] Other compositions include the following: micellar ketoester-zinc-ketoester, Zn-MNP; and micellar ketoester-copper-ketoester, Cu-MNP.
A process for novel synthesis of an MNP from iron salt is as follows: The aqueous saturated solution of 1 g ferric chloride hexahydrate is dissolved in 10 ml EAA with rapid stirring for 1 minute or more to the formation of the coordination complex.

[2] = Critical micelle concentration; format: physicochemical
From the text: Ketoesters also are a source of metabolizable micellar nanoparticles for transepidermal transport; i.e., at or above the CMC of a ketoester. For example, when applied to a leaf at or above the CMC 6.48 mol % of the β-ketoester, EAA is an effective wetter and spreader of water-based solutions. This is particularly true of EAA when applied at CMC on leaves of green plants. Furthermore, by bringing the ketoester to CMC, other compounds in solution synergistically rise to CMC. For example, in the embodiments disclosed herein, physical characteristics of the CMC of the ketoester, MAA, are applied to create zinc depots.

[3] = test system: waxy foliar surfaces of oleander leaves; experiment: Effective spreading of water droplets on waxy foliar surfaces, determined visually; settings: oleander leaf, visual determination
From the text: Experimental biology investigations show an exemplary synergism of EAA to random block copolymer (RBC) using the formulations of the invention to visually determine the effect of concentration of the compounds on the effective spreading of water droplets on waxy foliar surfaces of oleander leaves. The following is an exemplary effective spreading of water droplet on a waxy leaf based on EAA synergist: • Leaf Plant Type Effective water droplet spreading • RBC EAA RBC+EAA • Oleander 0.6% 1% 0.3%+0.86%

[4] = test system: Petunia; experiment: Effective foliar application dose of safened ketoester formulations (synergism EAA/cosolvent); format: in vivo

SMILES | solubility in IPA ([1]; IPA) | solubility in water ([1]; water) | CMC (critical micelle concentration) [2] | Effective water droplet spreading (concentration) [3] | effective foliar application dose [4]
CCOC(=O)CC(C)=O.[Fe+3] [Fe-EAA, ferric(III)-ethyl acetoacetate] | soluble | insoluble | – | – | –
CCOC(=O)CC(C)=O [EAA, ethyl acetoacetate] | – | – | 6.48 mol % | 1% | 100 mM
